Values of other authors in patent US20180206518A1, “METHOD OF MAKING CANNABIS OIL H[…] E[…] RELATED CANNABINOID COMPOSITIONS” (priority 2016, published 2018).

Details: edible cannabis products, depending on liver function

CCCCCc1cc(O)c2c(c1)OC(C)(C)[C@@H]1CCC(C)=CC21 (stereo partly shown) [THC, Δ9-tetrahydrocannabinol]
THC able to be metabolized: 2-6%
